How the values were obtained:
[1] = system: Lactobacillus helveticus R0052; assay: Liquid compatibility method (pH monitoring of strain growth with SAMe); assay type: cell-based
Procedure: The study was carried out in a first phase with SAMe+Lactobacillus helveticus R0052, not microencapsulated, through a liquid compatibility method. The initial population tested was 15.10^E9 CFU/g units at 500 mg of SAMe. For this evaluation a pHmeter with 8 probes was used, and values were verified every 15 minutes.
The strains are inoculated into a liquid medium suitable for their growth, only under […] conditions (reason why in this way the Bifidobacterium is not tested), and the active substance is inoculated into the sample and not into the control.
From an operational point of view: the vial is filled with the liquid medium (50 ml RCM); the active, which should have been tested directly in its granulated form in the vial, is added, and it is mixed. Then the pH of the medium in the presence of the active is verified, if necessary, the pH is adjusted so that it is comprised between 6.5 and 7. R0052 strain is therefore inoculated (batch U12171600, 500.10^E9 CFU/g) into the vial. The sample is diluted 1/100 with Dilumat to obtain a dilution to 5.10^E9 CFU/ml and finally it is inoculated with 3 ml into the 50 ml RCM vial, obtaining […]. The vial is placed in warm bath, at 37°, and the pH started to be recorded for 18 hours.

[2] = system: R0052 probiotic strain; assay: Microbiological test, CFU count in Petri dish with SAMe; assay type: cell-based, Lactobacillus helveticus; conditions: SAMe marketed formulation 500 mg dose, vs probiotic strain only
Procedure: (§1) 1.2 MICROBIOLOGICAL TEST: within the bio-compatibility study a microbiological evaluation was carried out. R0052 and R0175 probiotic strains were cultured in a Petri dish, in the presence of the active (SAMe, marketed formulation) at a 500 mg dose (as above). A sample was also analyzed as a reference of probiotic strain only, so that it could be compared with the addition of the active on the result in Colony-Forming Units (CFU). […] This is easily justified by the simple analytical error, known in the microbiological field.

[3] = system: R0175 probiotic strain; assay: as above; assay type: cell-based, Bifidobacterium longum; conditions: SAMe marketed formulation 500 mg dose, vs probiotic strain only
Procedure: as §1

[4] = cited from earlier work

Compound: C[S+](CC[C@H](N)C(=O)O)C[C@H]1O[C@@H](n2cnc3c(N)ncnc32)[C@H](O)[C@@H]1O (some centres unmarked) [SAMe, S-adenosyl methionine]
- pH of medium, R0052 in contact with SAMe, final ([1]; 500 mg SAMe, RCM medium, 37°, after pH decrease over 18 hours recording): 4.2
- pH of medium, R0052 in contact with SAMe, initial ([1]; 500 mg SAMe, RCM medium, 37°, start of 18 hours recording): 7.2
- Compatibility of L. helveticus R0052 strain with SAMe ([1]; conclusion from acidification): compatible
- pH of the active (SAMe) alone ([1]; without strain, RCM medium, 37°, remains essentially unchanged): 7-7.5
- Modification of CFU count [2]: up to 5%
- Modification of CFU count [3]: up to 5%
- Plasma levels of the unmodified molecule ([4]; oral intake): 5-10 % of the administered dose
- Plasma bioavailability ([4]; parenteral (intravenous or intramuscular) route): 90-100 % of the administered dose
